Assay results as given in ChEMBL document CHEMBL1201862, “PubChem BioAssay data set” (2004).
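Exposure lasted 48 hours, with cells grown in 96-well plates and compounds tested at five concentrations. Abbreviation: GI50, concentration required for 50% inhibition of growth.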 The source made the active and inactive calls. Rule as the data show it: active = GI50 up to about 1.1 µM and inactive = higher.

Legend:
Test in all cases: NCI-60 cell line screen, 48 h
786-0 = test system: 786-0
A498 = test system: A498
ACHN = test system: ACHN
CCRF-CEM = test system: CCRF-CEM
DU-145 = test system: DU-145
HCT-15 = test system: HCT-15
HOP-62 = test system: HOP-62
M14 = test system: M14
MDA-MB-231 = test system: MDA-MB-231
MOLT-4 = test system: MOLT-4
NCI-H23 = test system: NCI-H23
NCI-H460 = test system: NCI-H460
OVCAR-8 = test system: OVCAR-8
PC-3 = test system: PC-3
RXF 393 = test system: RXF 393
SF-268 = test system: SF-268
SK-MEL-2 = test system: SK-MEL-2
SK-OV-3 = test system: SK-OV-3
SN12C = test system: SN12C
SNB-75 = test system: SNB-75

Row | SMILES | GI50 (786-0) | GI50 (A498) | GI50 (ACHN) | GI50 (CCRF-CEM) | GI50 (DU-145) | GI50 (HCT-15) [µM] | GI50 (HOP-62) | GI50 (M14) | GI50 (MDA-MB-231) | GI50 (MOLT-4) | GI50 (NCI-H23) | GI50 (NCI-H460) | GI50 (OVCAR-8) | GI50 (PC-3) | GI50 (RXF 393) | GI50 (SF-268) | GI50 (SK-MEL-2) | GI50 (SK-OV-3) | GI50 (SN12C) | GI50 (SNB-75)
1 | N=C(N)SC1c2ccccc2-c2cc([N+](=O)[O-])ccc21 (stereo not given) | 4.67 µM (inactive) | 3.62 µM (inactive) | 6.53 µM (inactive) | 3.3 µM (inactive) | 3.88 µM (inactive) | 4.48 | 6.56 µM (inactive) | 5.15 µM (inactive) | 6.5 µM (inactive) | 3.52 µM (inactive) | 4.84 µM (inactive) | 3.93 µM (inactive) | 8.99 µM (inactive) | 3.78 µM (inactive) | 3.5 µM (inactive) | 4.48 µM (inactive) | 3.51 µM (inactive) | 4.44 µM (inactive) | 8.51 µM (inactive) | 2.02 µM (inactive)
2 | O=C(Cc1ccc(Cl)cc1)Nc1ccc2oc(-c3ccccc3)nc2c1 | 57 µM (inactive) | > 100 µM (inactive) | > 100 µM (inactive) | > 100 µM (inactive) | > 100 µM (inactive) | > 100 | 35.6 µM (inactive) | > 100 µM (inactive) | > 100 µM (inactive) | > 100 µM (inactive) | > 100 µM (inactive) | > 100 µM (inactive) | 32.7 µM (inactive) | > 100 µM (inactive) | > 100 µM (inactive) | 74 µM (inactive) | 89.1 µM (inactive) | 77.8 µM (inactive) | 84.9 µM (inactive) | 24.4 µM (inactive)
3 | O=[N+]([O-])c1ccc2c(Nc3ccccc3-c3ccccc3Nc3c4ccccc4nc4cc([N+](=O)[O-])ccc34)c3ccccc3nc2c1 | 1.93 µM (inactive) | 9.35 µM (inactive) | 3.17 µM (inactive) | 3.88 µM (inactive) | 6.89 µM (inactive) | 3.77 | 9.33 µM (inactive) | 2.92 µM (inactive) | 2.31 µM (inactive) | 4.01 µM (inactive) | 10.8 µM (inactive) | 2.5 µM (inactive) | 3.93 µM (inactive) | 1.44 µM (inactive) | 1.52 µM (inactive) | 6.55 µM (inactive) | 2.03 µM (inactive) | 13.2 µM (inactive) | 2.54 µM (inactive) | 4.19 µM (inactive)
4 | COCCOC(=O)C1=C(O)c2ccccc2S(=O)(=O)N1C | > 100 µM (inactive) | > 100 µM (inactive) | > 100 µM (inactive) | > 100 µM (inactive) | > 100 µM (inactive) | > 100 | > 100 µM (inactive) | > 100 µM (inactive) | > 100 µM (inactive) | > 100 µM (inactive) | > 100 µM (inactive) | > 100 µM (inactive) | > 100 µM (inactive) | > 100 µM (inactive) | > 100 µM (inactive) | > 100 µM (inactive) | > 100 µM (inactive) | > 100 µM (inactive) | > 100 µM (inactive) | 12.5 µM (inactive)
5 | CCOC(=O)c1c(C)n(-c2ccc(Cl)cc2)c2c1cc(O)c1[nH]c3c(c12)CCCC3 | > 100 µM (inactive) | 73.1 µM (inactive) | 46.3 µM (inactive) | 32.4 µM (inactive) | > 100 µM (inactive) | > 100 | > 100 µM (inactive) | 57.3 µM (inactive) | > 100 µM (inactive) | 26.4 µM (inactive) | 48.6 µM (inactive) | 47.5 µM (inactive) | 55.6 µM (inactive) | 41 µM (inactive) | 19.5 µM (inactive) | 50.5 µM (inactive) | 29.6 µM (inactive) | > 100 µM (inactive) | 65.2 µM (inactive) | 44 µM (inactive)
6 | CC(=O)NC1(c2cc3ccccc3s2)CCCCCC1 | 34.7 µM (inactive) | 43.4 µM (inactive) | 43.9 µM (inactive) | 20.7 µM (inactive) | 51.3 µM (inactive) | 33.7 | 46.7 µM (inactive) | 42 µM (inactive) | 40.4 µM (inactive) | 18.5 µM (inactive) | 35.2 µM (inactive) | 36.6 µM (inactive) | 50.9 µM (inactive) | 27.4 µM (inactive) | 29.6 µM (inactive) | 21.3 µM (inactive) | 33 µM (inactive) | 37.1 µM (inactive) | 42.3 µM (inactive) | 31 µM (inactive)
7 | O=[N+]([O-])/C=C/c1cc2ccccc2[nH]1 | 14.6 µM (inactive) | 19.3 µM (inactive) | 17 µM (inactive) | 2.99 µM (inactive) | 15.4 µM (inactive) | 21.5 | 16.5 µM (inactive) | 12.5 µM (inactive) | 18.2 µM (inactive) | 15.2 µM (inactive) | 13.1 µM (inactive) | 14.6 µM (inactive) | 21.6 µM (inactive) | 15.2 µM (inactive) | 13.3 µM (inactive) | 16.9 µM (inactive) | 19.3 µM (inactive) | 16.9 µM (inactive) | 17.7 µM (inactive) | 15.2 µM (inactive)
8 | CSc1nncc(-c2cc3c(c(SC)n2)CCCC3)n1 | > 100 µM (inactive) | > 100 µM (inactive) | > 100 µM (inactive) | > 100 µM (inactive) | > 100 µM (inactive) | > 100 | 30.5 µM (inactive) | > 100 µM (inactive) | > 100 µM (inactive) | > 100 µM (inactive) | > 100 µM (inactive) | > 100 µM (inactive) | 54.8 µM (inactive) | > 100 µM (inactive) | 47.3 µM (inactive) | 26.9 µM (inactive) | > 100 µM (inactive) | 40.1 µM (inactive) | > 100 µM (inactive) | 60.7 µM (inactive)
9 | Nc1nc2c(c(-c3cccc(Cl)c3)n1)COC/C2=C\c1cccc(Cl)c1 | 15.6 µM (inactive) | > 100 µM (inactive) | > 100 µM (inactive) | > 100 µM (inactive) | 80.2 µM (inactive) | > 100 | > 100 µM (inactive) | > 100 µM (inactive) | 52.7 µM (inactive) | > 100 µM (inactive) | > 100 µM (inactive) | > 100 µM (inactive) | > 100 µM (inactive) | > 100 µM (inactive) | > 100 µM (inactive) | > 100 µM (inactive) | > 100 µM (inactive) | > 100 µM (inactive) | > 100 µM (inactive) | 22.9 µM (inactive)
10 | O=[N+]([O-])c1ccc(O)c(/C=N/c2nc(-c3ccccc3)cs2)c1 | 34.2 µM (inactive) | > 93.5 µM (inactive) | 31.4 µM (inactive) | 43.3 µM (inactive) | 30.4 µM (inactive) | 29.1 | 26.7 µM (inactive) | 29.4 µM (inactive) | 33.3 µM (inactive) | 17.9 µM (inactive) | 20.3 µM (inactive) | 38.1 µM (inactive) | 25.9 µM (inactive) | 33.3 µM (inactive) | 20.8 µM (inactive) | 27.9 µM (inactive) | 24.4 µM (inactive) | 32.5 µM (inactive) | 34.8 µM (inactive) | 23 µM (inactive)
11 | COc1ccc2nc3cccc([N+](=O)[O-])c3c(NCCN(C)C)c2c1 | 0.0902 µM (active) | 0.17 µM (active) | 0.0585 µM (active) | 0.16 µM (active) | 0.0223 µM (active) | 0.0716 | 0.119 µM (active) | 0.0927 µM (active) | 0.156 µM (active) | 0.103 µM (active) | 0.136 µM (active) | 0.0165 µM (active) | 0.0638 µM (active) | 0.108 µM (active) | 0.0851 µM (active) | 0.145 µM (active) | 0.127 µM (active) | 0.255 µM (active) | 0.11 µM (active) | 0.159 µM (active)
12 | C=CCOC(=O)/C(=C\c1ccc(OC)c(OC)c1)c1ccc(OC)c(OC)c1 | 71.3 µM (inactive) | 78.7 µM (inactive) | 56.2 µM (inactive) | 30.8 µM (inactive) | > 100 µM (inactive) | > 100 | > 100 µM (inactive) | > 100 µM (inactive) | > 100 µM (inactive) | 15.6 µM (inactive) | 39.2 µM (inactive) | 25.4 µM (inactive) | > 100 µM (inactive) | 33.1 µM (inactive) | 27.9 µM (inactive) | 52.7 µM (inactive) | 47.9 µM (inactive) | > 100 µM (inactive) | > 100 µM (inactive) | 1.66 µM (inactive)
13 | CC(=O)[C@]1(O)Cc2c(O)c3c(c(O)c2[C@@H](OC2CC(N)C(O)C(C)O2)C1)C(=O)c1c(OCc2ccccc2)cccc1C3=O (stereo not given in full) | 1.08 µM (active) | 5.61 µM (inactive) | 0.946 µM (active) | 0.202 µM (active) | 1.63 µM (inactive) | 1.39 | 1.84 µM (inactive) | 1.49 µM (inactive) | 1.92 µM (inactive) | 0.0741 µM (active) | 1.64 µM (inactive) | 0.14 µM (active) | 1.48 µM (inactive) | 1.26 µM (inactive) | 2.63 µM (inactive) | 1.75 µM (inactive) | 17.4 µM (inactive) | 4.06 µM (inactive) | 1.37 µM (inactive) | 3.48 µM (inactive)
14 | CC(C)N(CCCNc1c2ccccc2nc2cccc([N+](=O)[O-])c12)C(C)C | < 0.0179 µM (active) | 0.0196 µM (active) | < 0.0126 µM (active) | < 0.0173 µM (active) | < 0.01 µM (active) | 0.0191 | < 0.0191 µM (active) | 0.0125 µM (active) | < 0.01 µM (active) | < 0.0134 µM (active) | < 0.0108 µM (active) | < 0.01 µM (active) | < 0.0167 µM (active) | < 0.0203 µM (active) | 0.0153 µM (active) | < 0.0224 µM (active) | 0.0473 µM (active) | < 0.0326 µM (active) | < 0.0165 µM (active) | < 0.044 µM (active)
